This is an account of results in patent publication US10092028B2, “Compositions comprising cinnamaldehyde and zinc and methods of using such compositions” (NESTEC S.A., priority 2014, dated 2018).

pEC50: −log10 of the molar value.

Series [1] in a line: nose temperature after ingestion in human subjects. It counts as in vivo. To be noted: fifteen minutes following ingestion, FIG. 7. Here is the method:
The nose temperature of the subjects was analyzed over the fifteen minutes following ingestion of the various compounds. […] The increased sympathetic activity identified by measuring the facial temperature (increased blood flow on the chin) might explain the increased energy expenditure measured by indirect calorimetry.

A short description of series [2]: comparative taste testing in human subjects. The format is in vivo. As to conditions: 4.8 ppm capsaicin or 350 ppm cinnamaldehyde, FIG. 9. Here is the method:
Human subjects were administered a composition comprising 4.8 ppm capsaicin or 350 ppm cinnamaldehyde. […] 87.9% of the participants judged capsaicin intense to very intense, compared to only 20.5% for cinnamaldehyde. To achieve a similar effect on fat oxidation of capsaicin and cinnamaldehyde, the dose of capsaicin is about 1.5 times less than the maximum that can be used as a flavor (7 ppm according to Fenaroli's Handbook; Burdock, 2010), and the dose of cinnamaldehyde is about 17.5 times less than the maximum that can be used as a flavor (6191.0 ppm according to Fenaroli's Handbook; Burdock, 2010).

For series [3] the following is noted: in vivo; cited from earlier work.
A short description of series [4]: insulin sensitivity in mice with chronic ingestion, high fat diet. It counts as in vivo. To be noted: mice chronically fed high fat diet containing 0.2 wt % cinnamaldehyde, FIG. 11. From the text: The composition can thereby reduce glycemia.
A further series concerns the target TRPA1 (Homo sapiens, UniProt O75762). As to conditions: read-out: EC50 for activation of TRPA1; cited from earlier work.
Series [5] is described as follows: chin temperature after ingestion in human subjects (sympathetic activity). It counts as in vivo. Here is the method: The chin temperature of the subjects was measured over the eighty minutes following ingestion of the various compounds. […] The increased sympathetic activity identified by measuring the facial temperature (increased blood flow on the chin) might explain the increased energy expenditure measured by indirect calorimetry.

Series [6] is described as follows: energy expenditure after ingestion in human subjects. It counts as in vivo. Here is the method:
Human subjects were administered placebo, a cooling flavor, capsaicin, or cinnamaldehyde. The energy expenditure was measured over the eighty minutes following ingestion. […] The increased sympathetic activity identified by measuring the facial temperature (increased blood flow on the chin) might explain the increased energy expenditure measured by indirect calorimetry.

Another series concerns the target TRPV1 (Homo sapiens, UniProt Q8NER1). To be noted: cited from earlier work.
A short description of series [7]: postprandial fat oxidation after ingestion in human subjects. It counts as in vivo. Here is the method: The postprandial fat oxidation was measured over the 90 minutes following ingestion of the various compounds.
Series [8] deals with T1, hTRPA1 expressed in CHO cells (Homo sapiens, UniProt O75762).
T1 construct: expressed in transfected cells; host or cells: CHO cells
T1 sequence (O75762 whole entry): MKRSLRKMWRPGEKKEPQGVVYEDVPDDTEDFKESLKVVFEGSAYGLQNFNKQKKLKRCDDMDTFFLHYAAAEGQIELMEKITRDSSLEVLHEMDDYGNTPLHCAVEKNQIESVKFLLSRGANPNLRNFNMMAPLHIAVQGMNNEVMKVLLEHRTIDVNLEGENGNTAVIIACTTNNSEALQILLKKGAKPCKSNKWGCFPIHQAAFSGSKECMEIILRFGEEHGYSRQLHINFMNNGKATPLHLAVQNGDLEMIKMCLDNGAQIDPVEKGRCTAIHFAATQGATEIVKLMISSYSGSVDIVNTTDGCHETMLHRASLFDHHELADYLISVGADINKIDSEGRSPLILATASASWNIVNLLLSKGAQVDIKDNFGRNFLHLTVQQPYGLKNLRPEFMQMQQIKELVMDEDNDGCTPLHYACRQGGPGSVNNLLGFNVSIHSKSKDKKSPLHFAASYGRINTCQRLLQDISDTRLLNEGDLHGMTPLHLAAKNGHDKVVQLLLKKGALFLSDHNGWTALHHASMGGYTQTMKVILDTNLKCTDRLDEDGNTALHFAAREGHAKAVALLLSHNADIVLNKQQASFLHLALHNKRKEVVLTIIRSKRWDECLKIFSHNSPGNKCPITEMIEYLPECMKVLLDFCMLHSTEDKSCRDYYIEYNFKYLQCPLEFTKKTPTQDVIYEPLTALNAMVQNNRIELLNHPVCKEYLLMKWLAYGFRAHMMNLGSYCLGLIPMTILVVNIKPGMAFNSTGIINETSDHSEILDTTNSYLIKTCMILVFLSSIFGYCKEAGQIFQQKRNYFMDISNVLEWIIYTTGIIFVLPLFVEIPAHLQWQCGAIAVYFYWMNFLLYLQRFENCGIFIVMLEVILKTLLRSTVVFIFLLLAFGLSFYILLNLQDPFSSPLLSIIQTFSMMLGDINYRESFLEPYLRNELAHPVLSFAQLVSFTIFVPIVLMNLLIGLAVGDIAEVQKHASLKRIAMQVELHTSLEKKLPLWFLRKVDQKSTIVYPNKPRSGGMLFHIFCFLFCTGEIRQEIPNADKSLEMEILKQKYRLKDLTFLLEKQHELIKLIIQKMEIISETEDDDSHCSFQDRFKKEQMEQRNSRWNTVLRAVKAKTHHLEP
Kind of series: in vitro activity of hTRPA1 expressed in CHO cells, intracellular calcium with a fluorescent dye. To be noted: cinnamaldehyde at 50 mM (C+), according to a dose-response curve. The format is cell-based.

Setting [9] is: at a flavoring level judged significantly less intense than capsaicin.

Sequence of TRPV1 (Q8NER1 whole entry, species assumed): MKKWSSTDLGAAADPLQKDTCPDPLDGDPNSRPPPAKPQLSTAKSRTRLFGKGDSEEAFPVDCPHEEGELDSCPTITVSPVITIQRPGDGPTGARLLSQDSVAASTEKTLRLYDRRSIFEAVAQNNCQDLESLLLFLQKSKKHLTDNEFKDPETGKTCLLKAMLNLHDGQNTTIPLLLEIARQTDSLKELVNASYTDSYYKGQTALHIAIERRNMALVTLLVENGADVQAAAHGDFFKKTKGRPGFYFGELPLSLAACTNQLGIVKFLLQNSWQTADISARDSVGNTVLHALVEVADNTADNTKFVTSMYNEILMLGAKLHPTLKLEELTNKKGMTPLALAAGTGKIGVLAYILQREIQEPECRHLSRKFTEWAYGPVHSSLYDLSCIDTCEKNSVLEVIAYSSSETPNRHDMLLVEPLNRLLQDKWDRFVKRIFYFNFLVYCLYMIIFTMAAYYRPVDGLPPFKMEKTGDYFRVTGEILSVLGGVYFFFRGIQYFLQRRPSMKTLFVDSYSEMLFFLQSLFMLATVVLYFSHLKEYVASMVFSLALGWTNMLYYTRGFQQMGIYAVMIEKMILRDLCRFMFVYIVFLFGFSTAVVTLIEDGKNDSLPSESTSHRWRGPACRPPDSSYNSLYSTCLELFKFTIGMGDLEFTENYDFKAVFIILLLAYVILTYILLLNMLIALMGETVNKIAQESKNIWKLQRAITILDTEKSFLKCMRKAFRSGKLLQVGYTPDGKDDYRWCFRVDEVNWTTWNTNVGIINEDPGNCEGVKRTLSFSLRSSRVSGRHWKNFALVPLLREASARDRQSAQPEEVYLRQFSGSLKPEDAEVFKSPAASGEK
Sequence of TRPA1 (O75762 whole entry): as the sequence (O75762 whole entry) above

Consider `COc1cc(CNC(=O)CCCC/C=C/C(C)C)ccc1O` [capsaicin], for which the nose temperature result in [1] is recorded as “increase nose temperatures”. For the same compound, the “participants who judged the taste intense to very intense” value in series [2] is on record as 87.9%. The “efficient dose for increasing energy expenditure and fat oxidation” value in series [3] is not below 20 mg.
As to `O=CC=Cc1ccccc1` [cinnamaldehyde], in series [4], the “insulin sensitivity relative to same high fat diet without cinnamaldehyde” value is reported as “improved insulin sensitivity”. Moreover, the pEC50 on TRPA1 is approximately 5.00. Further, in [5] (setting [9]), the “impact on sympathetic nervous system activity compared to capsaicin” value was “significantly higher impact”. For the same compound, in series [5] (eighty minutes following ingestion, FIG. 8), the “chin temperature relative to baseline” value is reported as “increases chin temperature for a prolonged time”. In addition, the “impact on energy expenditure compared to capsaicin” value in [6] (setting [9]) is given as “significantly higher impact”. Also, the “energy expenditure compared to placebo” value in series [6] (eighty minutes following ingestion, time course and AUC, FIGS. 3 and 4) is given as “increased”. Also, the “activation of TRPV1” value at TRPV1 is recorded as “but not TRPV1 or TRPM8”. The nose temperature entry in series [1] is on record as “increase nose temperatures”. Besides, in series [7] (90 minutes following ingestion, time course and AUC, FIGS. 5 and 6), the “postprandial fat oxidation compared to placebo” value is recorded as “maintained at higher levels”. Further, the “effect on fat oxidation compared to capsaicin” value in [7] (setting [9]) is recorded as “equivalent effect”. For the same compound, in [8], the “activity of hTRPA1, positive control efficacy” value is listed as “maximum efficacy”.
